{"source": "paper PMC5433425", "about": "(PeerJ, 2017)", "key": {"[1]": {"test_system": "E. coli K-12 AG100 (wild-type)", "test": "MIC, broth microdilution", "type": "cell-based", "details": "Escherichia coli; E. coli AG100 wild-type; read-out: MIC"}, "[2]": {"test_system": "human monocyte-derived macrophages", "test": "Cytotoxicity, AlamarBlue method", "type": "cell-based", "details": "human, 3 days", "procedure": "(§1) The blood was collected from healthy donors and the peripheral blood mononuclear cells were isolated by Ficoll-Paque Plus (GE Healthcare, Freiburg, Germany) density gradient centrifugation as previously described ([Machado et al., 2016]). […] Fresh medium was added at day 4 post isolation. The effect of the compounds on human monocyte-derived macrophages was evaluated using the AlamarBlue method (Molecular Probes, Life Technologies) ([O’Brien et al., 2000]), and by measuring the release of the lactate dehydrogenase (LDH) into the culture supernatants using the Pierce LDH Cytotoxicity Assay (ThermoFisher Scientific, Waltham, MA, USA) ([Chan, Moriwaki & Rosa, 2013]) according to the manufacturer’s instructions. Briefly, 5 × 10^4 cells were seeded in 96-well microplates treated with the compounds, and incubated at 37 °C with 5% CO2. After 72 h of treatment, the cell viability was assessed. For the AlamarBlue method, the dye was added to each well to a final concentration of 10% and incubated overnight at 37 °C and 5% CO2. The fluorescence was measured with a 540/35 excitation filter and a 590/20 emission filter in a Synergy HT multi-mode microplate reader. The release of LDH from damaged cells into culture supernatants, as an indicator of cytotoxicity, was measured in serum-free medium. Here the amount of enzyme activity correlates to the number of damaged cells. The specific lysis was calculated as follows: (treated cells—spontaneous LDH release)/ (maximum LDH release—spontaneous LDH release) ×100."}, "[3]": {"test_system": "human monocyte-derived macrophages", "test": "Cytotoxicity, LDH release", "type": "cell-based", "details": "human, 3 days", "procedure": "as §1"}, "E. coli AG100A [4]": {"test_system": "E. coli AG100A", "details": "EtBr […] + inhibitor 20 µM"}, "E. coli AG100A [5]": {"test_system": "E. coli AG100A", "test": "EtBr efflux by real-time fluorometry", "details": "20 µM", "method": "Control tubes with only cells and cells with and without 0.4% glucose were included. The fluorescence was measured in a Rotor-Gene 3000 and the data was acquired every 30 s for 30 min at 37 °C. The efflux activity was quantified by comparing the fluorescence data obtained under conditions that promote efflux (presence of glucose and absence of efflux inhibitor) with the data from the control in which the bacteria are under conditions of no efflux (presence of an inhibitor and no energy source)."}}, "note": "Several values for one entry are separate records, joined by “and”; a condition that tells them apart may be missing. Equal values may be shown once. Read-outs that look alike come from different tables or passages of the source.", "data": [{"smiles": "CN(C)CCCN1c2ccccc2Sc2ccc(Cl)cc21", "note": "[CPZ, chlorpromazine]", "values": [{"measurement": "MIC", "setting": "[1]", "result": "120 µg/mL and 338 µM"}, {"measurement": "CC10", "setting": "[2]", "result": 13.36, "unit": "µM"}, {"measurement": "LDH release", "setting": "[3]; 1.25 µM", "result": 0.95, "unit": "%"}, {"measurement": "LDH release", "setting": "[3]; 20 µM", "result": 24, "unit": "%"}, {"measurement": "EtBr fluorescence", "setting": "E. coli AG100A [4]; cycle 1", "result": 2.607}, {"measurement": "EtBr fluorescence", "setting": "E. coli AG100A [4]; cycle 2", "result": 3.106}, {"measurement": "EtBr fluorescence", "setting": "E. coli AG100A [4]; cycle 3", "result": 3.464}, {"measurement": "EtBr fluorescence", "setting": "E. coli AG100A [4]; cycle 4", "result": 4.013}, {"measurement": "EtBr fluorescence", "setting": "E. coli AG100A [4]; cycle 5", "result": 4.508}, {"measurement": "EtBr fluorescence", "setting": "E. coli AG100A [4]; cycle 6", "result": 5.005}, {"measurement": "EtBr fluorescence", "setting": "E. coli AG100A [4]; cycle 7", "result": 5.439}, {"measurement": "EtBr fluorescence", "setting": "E. coli AG100A [4]; cycle 8", "result": 6.027}, {"measurement": "EtBr fluorescence", "setting": "E. coli AG100A [4]; cycle 9", "result": 6.585}, {"measurement": "EtBr fluorescence", "setting": "E. coli AG100A [4]; cycle 10", "result": 7.2591}, {"measurement": "EtBr fluorescence", "setting": "E. coli AG100A [4]; cycle 11", "result": 7.711}, {"measurement": "EtBr fluorescence", "setting": "E. coli AG100A [4]; cycle 12", "result": 8.1901}, {"measurement": "EtBr fluorescence", "setting": "E. coli AG100A [4]; cycle 13", "result": 9.033}, {"measurement": "EtBr fluorescence", "setting": "E. coli AG100A [4]; cycle 14", "result": 9.4255}, {"measurement": "EtBr fluorescence", "setting": "E. coli AG100A [4]; cycle 15", "result": 10.1045}, {"measurement": "EtBr fluorescence", "setting": "E. coli AG100A [4]; cycle 16", "result": 10.9436}, {"measurement": "EtBr fluorescence", "setting": "E. coli AG100A [4]; cycle 17", "result": 11.4479}, {"measurement": "EtBr fluorescence", "setting": "E. coli AG100A [4]; cycle 18", "result": 12.2134}, {"measurement": "EtBr fluorescence", "setting": "E. coli AG100A [4]; cycle 19", "result": 12.6889}, {"measurement": "EtBr fluorescence", "setting": "E. coli AG100A [4]; cycle 20", "result": 13.2115}, {"measurement": "EtBr fluorescence", "setting": "E. coli AG100A [4]; cycle 21", "result": 13.9156}, {"measurement": "EtBr fluorescence", "setting": "E. coli AG100A [4]; cycle 22", "result": 14.6607}, {"measurement": "EtBr fluorescence", "setting": "E. coli AG100A [4]; cycle 23", "result": 15.4189}, {"measurement": "EtBr fluorescence", "setting": "E. coli AG100A [4]; cycle 24", "result": 16.1017}, {"measurement": "EtBr fluorescence", "setting": "E. coli AG100A [4]; cycle 25", "result": 16.6199}, {"measurement": "EtBr fluorescence", "setting": "E. coli AG100A [4]; cycle 26", "result": 17.3366}, {"measurement": "EtBr fluorescence", "setting": "E. coli AG100A [4]; cycle 27", "result": 18.2879}, {"measurement": "EtBr fluorescence", "setting": "E. coli AG100A [4]; cycle 28", "result": 18.7671}, {"measurement": "EtBr fluorescence", "setting": "E. coli AG100A [4]; cycle 29", "result": 19.416}, {"measurement": "EtBr fluorescence", "setting": "E. coli AG100A [4]; cycle 30", "result": 19.8456}, {"measurement": "EtBr fluorescence (Channel Cycling A.530/585hp)", "setting": "E. coli AG100A [5]; cycle 1, + glucose", "result": 3.827}, {"measurement": "EtBr fluorescence (Channel Cycling A.530/585hp)", "setting": "E. coli AG100A [5]; cycle 1, without glucose", "result": 4.231}, {"measurement": "EtBr fluorescence (Channel Cycling A.530/585hp)", "setting": "E. coli AG100A [5]; cycle 2, + glucose", "result": 3.676}, {"measurement": "EtBr fluorescence (Channel Cycling A.530/585hp)", "setting": "E. coli AG100A [5]; cycle 2, without glucose", "result": 4.204}, {"measurement": "EtBr fluorescence (Channel Cycling A.530/585hp)", "setting": "E. coli AG100A [5]; cycle 3, + glucose", "result": 3.648}, {"measurement": "EtBr fluorescence (Channel Cycling A.530/585hp)", "setting": "E. coli AG100A [5]; cycle 3, without glucose", "result": 4.237}, {"measurement": "EtBr fluorescence (Channel Cycling A.530/585hp)", "setting": "E. coli AG100A [5]; cycle 4, without glucose", "result": 4.314}, {"measurement": "EtBr fluorescence (Channel Cycling A.530/585hp)", "setting": "E. coli AG100A [5]; cycle 5, without glucose", "result": 4.267}, {"measurement": "EtBr fluorescence (Channel Cycling A.530/585hp)", "setting": "E. coli AG100A [5]; cycle 6, without glucose", "result": 4.36}, {"measurement": "EtBr fluorescence (Channel Cycling A.530/585hp)", "setting": "E. coli AG100A [5]; cycle 7, without glucose", "result": 4.4}, {"measurement": "EtBr fluorescence (Channel Cycling A.530/585hp)", "setting": "E. coli AG100A [5]; cycle 8, without glucose", "result": 4.486}, {"measurement": "EtBr fluorescence (Channel Cycling A.530/585hp)", "setting": "E. coli AG100A [5]; cycle 9, + glucose", "result": 3.606}, {"measurement": "EtBr fluorescence (Channel Cycling A.530/585hp)", "setting": "E. coli AG100A [5]; cycle 9, without glucose", "result": 4.551}, {"measurement": "EtBr fluorescence (Channel Cycling A.530/585hp)", "setting": "E. coli AG100A [5]; cycle 10, + glucose", "result": 3.712}, {"measurement": "EtBr fluorescence (Channel Cycling A.530/585hp)", "setting": "E. coli AG100A [5]; cycle 10, without glucose", "result": 4.522}, {"measurement": "EtBr fluorescence (Channel Cycling A.530/585hp)", "setting": "E. coli AG100A [5]; cycle 11, + glucose", "result": 3.667}, {"measurement": "EtBr fluorescence (Channel Cycling A.530/585hp)", "setting": "E. coli AG100A [5]; cycle 11, without glucose", "result": 4.614}, {"measurement": "EtBr fluorescence (Channel Cycling A.530/585hp)", "setting": "E. coli AG100A [5]; cycle 12, + glucose", "result": 3.687}, {"measurement": "EtBr fluorescence (Channel Cycling A.530/585hp)", "setting": "E. coli AG100A [5]; cycle 12, without glucose", "result": 4.652}, {"measurement": "EtBr fluorescence (Channel Cycling A.530/585hp)", "setting": "E. coli AG100A [5]; cycle 13, + glucose", "result": 3.761}, {"measurement": "EtBr fluorescence (Channel Cycling A.530/585hp)", "setting": "E. coli AG100A [5]; cycle 13, without glucose", "result": 4.775}, {"measurement": "EtBr fluorescence (Channel Cycling A.530/585hp)", "setting": "E. coli AG100A [5]; cycle 14, + glucose", "result": 3.711}, {"measurement": "EtBr fluorescence (Channel Cycling A.530/585hp)", "setting": "E. coli AG100A [5]; cycle 14, without glucose", "result": 4.879}, {"measurement": "EtBr fluorescence (Channel Cycling A.530/585hp)", "setting": "E. coli AG100A [5]; cycle 15, + glucose", "result": 3.685}, {"measurement": "EtBr fluorescence (Channel Cycling A.530/585hp)", "setting": "E. coli AG100A [5]; cycle 15, without glucose", "result": 4.89}, {"measurement": "EtBr fluorescence (Channel Cycling A.530/585hp)", "setting": "E. coli AG100A [5]; cycle 16, + glucose", "result": 3.729}, {"measurement": "EtBr fluorescence (Channel Cycling A.530/585hp)", "setting": "E. coli AG100A [5]; cycle 16, without glucose", "result": 4.933}, {"measurement": "EtBr fluorescence (Channel Cycling A.530/585hp)", "setting": "E. coli AG100A [5]; cycle 17, + glucose", "result": 3.749}, {"measurement": "EtBr fluorescence (Channel Cycling A.530/585hp)", "setting": "E. coli AG100A [5]; cycle 17, without glucose", "result": 4.963}, {"measurement": "EtBr fluorescence (Channel Cycling A.530/585hp)", "setting": "E. coli AG100A [5]; cycle 18, + glucose", "result": 3.817}, {"measurement": "EtBr fluorescence (Channel Cycling A.530/585hp)", "setting": "E. coli AG100A [5]; cycle 18, without glucose", "result": 5.023}, {"measurement": "EtBr fluorescence (Channel Cycling A.530/585hp)", "setting": "E. coli AG100A [5]; cycle 19, + glucose", "result": 3.768}, {"measurement": "EtBr fluorescence (Channel Cycling A.530/585hp)", "setting": "E. coli AG100A [5]; cycle 19, without glucose", "result": 5.067}]}]}
